Columns and labels:
NK2 receptor = target: T1, NK2 receptor (Bos taurus, UniProt P05363); experiment: Antagonism of NK2 receptor mediated (NKA-induced) phosphatidylinositol turnover in SKLKB82#3 cells; type: cell-based; conditions: Schild analysis, NKA in SKLKB82#3 cells; mean (95% confidence limits), 2-3 experiments
T1 construct: expressed in transfected cells; host or cells: SKLKB82#3 cells
T1 sequence (P05363 1-384): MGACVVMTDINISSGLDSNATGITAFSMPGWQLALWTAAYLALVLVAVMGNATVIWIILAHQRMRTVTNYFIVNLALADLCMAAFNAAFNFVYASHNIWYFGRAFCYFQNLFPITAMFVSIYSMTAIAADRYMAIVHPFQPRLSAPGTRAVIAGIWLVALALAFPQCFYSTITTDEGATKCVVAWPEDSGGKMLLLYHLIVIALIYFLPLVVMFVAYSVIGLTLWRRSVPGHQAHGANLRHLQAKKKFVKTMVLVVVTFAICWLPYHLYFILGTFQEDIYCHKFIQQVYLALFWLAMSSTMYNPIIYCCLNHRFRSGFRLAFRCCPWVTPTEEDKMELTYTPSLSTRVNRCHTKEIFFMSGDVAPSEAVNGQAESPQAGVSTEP
Description: (§1) Tachykinin-mediated inositol phosphate accumulation was measured in UCll or SKLKB82#3 cells in the presence and absence of NK1 or NK2 receptor antagonists, respectively. Tissues were incubated in Krebs-Henseleit buffer at 37°C with 95% O2-5% CO2 gassing. Tissues were then incubated with fresh buffer containing 100 µCi of myo-[2-^3H(N)] inositol at 37°C for 60 min with gentle gassing. After washing twice at room temperature in 5 ml buffer containing 10 mM LiCl, tissues were incubated for 30 min at room temperature with a buffer change at 15 min. Buffer was removed and Krebs-Henseleit buffer (containing 40 µg/ml bacitracin, 4 µg/ml each of leupeptin and chymostatin, 0.1% bovine serum albumin and 10 mM each of thiorphan and LiCl) added. After 15 min, SP was added to UCll cells or NKA to SKLKB82#3 cells at various concentrations to start the reaction. After incubation for 60 min at room temperature the reaction was terminated by addition of 930 µl chloroform: methanol (1:2 by volume) to each tube, followed by 310 µl chloroform and 310 µl doubly distilled water. Samples were vortexed, centrifuged, and 0.9 ml of the aqueous (top) phase removed and added to 2 ml ddH2O. The mixture was vortexed and loaded onto a 50% Bio-Rad AG 1-X8 (formate form, 100-200 mesh) exchange column (Bio-Rad Laboratories, Hercules, CA). The columns were washed, in order, with: 1) 10 ml doubly distilled water, 2) 5 ml of 5 mM disodium tetraborate/60 mM sodium formate, and 3) 5 ml of 1 M ammonium formate/0.1 M formic acid. The third elution was collected and 1 ml counted in 7 ml scintillation fluid. A 50 µl aliquot of the organic (bottom) phase was removed, dried in a scintillation vial and counted in 7 ml scintillation fluid.
(§2) The ratio of DPM in the aqueous phase aliquot (total inositol phosphates) to the DPM in the 50 µl organic phase aliquot (total [^3H]inositol incorporated) was calculated for each sample. Data are expressed as a percent of agonist-induced accumulation of [^3H]-inositol phosphates over basal levels. The ratios in the presence of test compound and/or standards were compared to the ratios for control samples (i.e. no stimulating agonist). Dose-response graphs were constructed and the abilities of the test compounds to inhibit tachykinin-induced phosphatidylinositol turnover determined with the aid of a computer program. […] Data is expressed as percent stimulation of total inositol phosphate accumulation over basal levels and normalized to the maximum response produced by SP. […] Schild analysis is performed using dose response curves (such as those presented in Figures 1a and 1b) to obtain a value indicative of the strength of a competitive antagonist and is expressed as the pA2, which is the negative logarithm of the molar concentration of antagonist which reduces the effect of a dose of agonist to one-half of that expected at the dose of agonist. […]
(§3) Values are mean (95% confidence limits) derived from Schild analysis of 2-3 experiments per compound per receptor.

NK1 receptor = target: T2, NK1 receptor (Homo sapiens, UniProt P25103); experiment: Antagonism of NK1 receptor mediated (SP-induced) phosphatidylinositol turnover in UC11 cells; type: cell-based; conditions: Schild analysis, SP in UC11 cells; mean (95% confidence limits), 2-3 experiments
T2 construct: endogenous in cells; host or cells: UC11 cells
Description: as §1, §2, §3

T2 sequence (P25103 whole entry): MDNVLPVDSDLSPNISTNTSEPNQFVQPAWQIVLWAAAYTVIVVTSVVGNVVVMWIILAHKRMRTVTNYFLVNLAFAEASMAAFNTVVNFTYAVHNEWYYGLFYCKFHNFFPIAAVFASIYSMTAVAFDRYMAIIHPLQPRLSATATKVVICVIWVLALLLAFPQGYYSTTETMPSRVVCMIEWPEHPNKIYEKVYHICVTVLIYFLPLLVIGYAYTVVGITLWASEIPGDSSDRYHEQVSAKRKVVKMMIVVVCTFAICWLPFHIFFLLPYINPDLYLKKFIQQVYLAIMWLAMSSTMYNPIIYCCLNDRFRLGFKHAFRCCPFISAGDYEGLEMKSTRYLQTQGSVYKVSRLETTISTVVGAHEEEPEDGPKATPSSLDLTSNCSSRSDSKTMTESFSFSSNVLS

COc1cc(C(=O)N2CCC(CCN3CCC(C(N)=O)(c4ccccc4)CC3)(c3ccc(Cl)c(Cl)c3)C2)cc(OC)c1OC (single isomer, unassigned; (+)) [Example 20, (+)-1-[2-[3-(3,4-dichloro-phenyl)-1-(3,4,5-trimethoxy-benzoyl)-pyrrolidin-3-yl]-ethyl]-4-phenyl-piperidine-4-carboxylic acid amide] was tested, and the “NK-2 RECEPTOR -SLOPE” value (NK2 receptor) was 1.00 (0.63-1.37) and the “NK-1 RECEPTOR -SLOPE” value (NK1 receptor) was 1.03 (0.78-1.28).

Reference: EP0696280B1, “SUBSTITUTED PYRROLIDIN-3-YL-ALKYL-PIPERIDINES USEFUL AS TACHYKININ ANTAGONISTS” (MERRELL PHARMACEUTICALS INC., priority 1993, dated 1994)
